Like-named read-outs stand apart in the source and are kept apart here.
How the values were obtained:
Format in all cases: in vivo
CETP [1] = target: T1, CETP (Homo sapiens, UniProt P11597); experiment: CETP activity change from pre-dose after single oral doses, Caucasian males (Example 5); details: for change in vivo at 100 mg: 100 mg with food; for change in vivo at 100 mg / change in vivo at 300 mg / change in vivo at 600 mg / change in vivo at 900 mg / change in vivo at 1200 mg / change in vivo at 1500 mg / change in vivo at 1800 mg: read-out: Percent change from pre-dose in CETP activity (mean); for change in vivo at 300 mg: 300 mg with food; for Decrease in CETP activity relative to pre-dose: 6 hours after administration; for change in vivo at 600 mg: 600 mg with food; for change in vivo at 900 mg: 900 mg with food; for change in vivo at 1200 mg: 1200 mg with food; for change in vivo at 1500 mg: 1500 mg with food; for change in vivo at 1800 mg: 1800 mg with food
T1 construct: from tissue; host or cells: blood / plasma of human subjects dosed orally with Compound I
T1 sequence (P11597 18-493): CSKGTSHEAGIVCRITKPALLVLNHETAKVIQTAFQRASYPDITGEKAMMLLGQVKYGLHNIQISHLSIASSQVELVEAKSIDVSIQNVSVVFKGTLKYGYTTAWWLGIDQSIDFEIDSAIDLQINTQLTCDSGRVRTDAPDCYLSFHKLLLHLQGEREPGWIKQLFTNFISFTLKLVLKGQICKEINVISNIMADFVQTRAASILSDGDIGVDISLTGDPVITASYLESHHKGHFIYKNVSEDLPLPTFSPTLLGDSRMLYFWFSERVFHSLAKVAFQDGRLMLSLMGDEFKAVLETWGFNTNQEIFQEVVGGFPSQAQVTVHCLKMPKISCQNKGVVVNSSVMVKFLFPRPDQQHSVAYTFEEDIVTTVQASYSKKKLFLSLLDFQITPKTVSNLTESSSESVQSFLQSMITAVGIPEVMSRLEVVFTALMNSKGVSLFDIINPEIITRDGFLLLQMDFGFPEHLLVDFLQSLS
Protocol: Administration, dosing, and sampling schedules were substantially similar to those described in Example 1. The tablets were prepared as described in Example 1.
The procedure for determining CETP activity was substantially similar to the procedures described in Tollefson et al., Methods Enzymol., 129, 797-816 (1986), and Kato et al., J. Biol. Chem., 264, 4082-4087 (1989).
CETP activity and changes from baseline (pre-dose) were measured, and the resulting data is summarized in Table 6 as percentage change from baseline.

CETP [2] = target: T1, CETP; experiment: Food effect on CETP activity, 900 mg Compound I, Caucasian males (Example 6); details: for change in vivo at 900 mg: read-out: Percent change from pre-dose in CETP activity (mean)
From the text: Administration, dosing, and sampling schedules were substantially similar to those described in Example 1.
The procedure for determining CETP activity is described in Example 5.
The mean changes from baseline (pre-dose) in CETP activity over time are set out in the plot of FIG. 3.

CETP [3] = target: T1, CETP; experiment: Food effect on relative CETP activity, 600 mg Compound I, Japanese males (Example 8)
Protocol: Administration, dosing, and sampling schedules were commensurate with those described in Examples 1 and 6. […] Patients were administered two tablets of 300 mg each. The tablets were prepared as described in Example 1.
Relative CETP activities (calculated as a percentage of baseline CETP activity) and standard deviations (SD) were measured, and the resulting data is summarized in Table 9.

CCC(CC)CC1(C(=O)Nc2ccccc2SC(=O)C(C)C)CCCCC1 [Compound I, S-[2-([[1-(2-ethylbutyl)cyclohexyl]carbonyl]amino)phenyl]2-methylpropanethioate]
change in vivo at 100 mg (CETP [1]; 1 h): -2%
change in vivo at 100 mg (CETP [1]; 2 h): -2%
change in vivo at 100 mg (CETP [1]; 4 h): -5%
change in vivo at 100 mg (CETP [1]; 6 h): -7%
change in vivo at 100 mg (CETP [1]; 8 h): -6%
change in vivo at 100 mg (CETP [1]; 24 h): -1%
change in vivo at 100 mg (CETP [1]; post-study): -5%
change in vivo at 300 mg (CETP [1]; 1 h): 0%
change in vivo at 300 mg (CETP [1]; 2 h): -7%
change in vivo at 300 mg (CETP [1]; 4 h): -12%
change in vivo at 300 mg (CETP [1]; 6 h): -13%
change in vivo at 300 mg (CETP [1]; 8 h): -13%
change in vivo at 300 mg (CETP [1]; 24 h): -6%
change in vivo at 300 mg (CETP [1]; post-study): 2%
Decrease in CETP activity relative to pre-dose (CETP [1]; 300 mg): 13%
change in vivo at 600 mg (CETP [1]; 1 h): -3%
change in vivo at 600 mg (CETP [1]; 2 h): -12%
change in vivo at 600 mg (CETP [1]; 4 h): -29%
change in vivo at 600 mg (CETP [1]; 6 h): -36%
change in vivo at 600 mg (CETP [1]; 8 h): -36%
change in vivo at 600 mg (CETP [1]; 24 h): -21%
change in vivo at 600 mg (CETP [1]; post-study): -6%
Decrease in CETP activity relative to pre-dose (CETP [1]; 600 mg): 36%
change in vivo at 900 mg (CETP [1]; 1 h): -3%
change in vivo at 900 mg (CETP [1]; 2 h): -23%
change in vivo at 900 mg (CETP [1]; 4 h): -48%
change in vivo at 900 mg (CETP [1]; 6 h): -55%
change in vivo at 900 mg (CETP [1]; 8 h): -53%
change in vivo at 900 mg (CETP [1]; 24 h): -28%
change in vivo at 900 mg (CETP [1]; post-study): -5%
Decrease in CETP activity relative to pre-dose (CETP [1]; 900 mg): 55%
change in vivo at 1200 mg (CETP [1]; 1 h): -3%
change in vivo at 1200 mg (CETP [1]; 2 h): -17%
change in vivo at 1200 mg (CETP [1]; 4 h): -58%
change in vivo at 1200 mg (CETP [1]; 6 h): -71%
change in vivo at 1200 mg (CETP [1]; 8 h): -70%
change in vivo at 1200 mg (CETP [1]; 24 h): -43%
change in vivo at 1200 mg (CETP [1]; post-study): -4%
change in vivo at 1500 mg (CETP [1]; 1 h): -3%
change in vivo at 1500 mg (CETP [1]; 2 h): -32%
change in vivo at 1500 mg (CETP [1]; 4 h): -72%
change in vivo at 1500 mg (CETP [1]; 6 h): -83%
change in vivo at 1500 mg (CETP [1]; 8 h): -81%
change in vivo at 1500 mg (CETP [1]; 24 h): -48%
change in vivo at 1500 mg (CETP [1]; post-study): 0%
change in vivo at 1800 mg (CETP [1]; 1 h): -3%
change in vivo at 1800 mg (CETP [1]; 2 h): -23%
change in vivo at 1800 mg (CETP [1]; 4 h): -67%
change in vivo at 1800 mg (CETP [1]; 6 h): -74%
change in vivo at 1800 mg (CETP [1]; 8 h): -71%
change in vivo at 1800 mg (CETP [1]; 24 h): -42%
change in vivo at 1800 mg (CETP [1]; post-study): -5%
change in vivo at 900 mg (CETP [2]; 1 h, fasted, 1 h): 1%
change in vivo at 900 mg (CETP [2]; 1 h, fed, 1 h): -1%
change in vivo at 900 mg (CETP [2]; 2 h, fasted, 2 h): 2%
change in vivo at 900 mg (CETP [2]; 2 h, fed, 2 h): -16%
change in vivo at 900 mg (CETP [2]; 4 h, fasted, 4 h): -4%
change in vivo at 900 mg (CETP [2]; 4 h, fed, 4 h): -44%
change in vivo at 900 mg (CETP [2]; 6 h, fasted, 6 h): -10%
change in vivo at 900 mg (CETP [2]; 6 h, fed, 6 h): -59%
change in vivo at 900 mg (CETP [2]; 8 h, fasted, 8 h): -15%
change in vivo at 900 mg (CETP [2]; 8 h, fed, 8 h): -58%
change in vivo at 900 mg (CETP [2]; 24 h, fasted, 24 h): -10%
change in vivo at 900 mg (CETP [2]; 24 h, fed, 24 h): -34%
CETP activity, Post-study (all subjects) (CETP [2]; all subjects (fed and fasted periods), post-study): 96
CETP activity relative to pre-dose (CETP [3]; fasted, 1 h): 102.1%
CETP activity relative to pre-dose (CETP [3]; fasted, 2 h): 99.6%
CETP activity relative to pre-dose (CETP [3]; fasted, 4 h): 96.5%
CETP activity relative to pre-dose (CETP [3]; fasted, 6 h): 89.5%
CETP activity relative to pre-dose (CETP [3]; fasted, 8 h): 87.8%
CETP activity relative to pre-dose (CETP [3]; fasted, 24 h): 92.6%
CETP activity relative to pre-dose (CETP [3]; fasted, post-study): 100.4%
CETP activity relative to pre-dose (CETP [3]; fed, 1 h): 100.4%
CETP activity relative to pre-dose (CETP [3]; fed, 2 h): 87.8%
CETP activity relative to pre-dose (CETP [3]; fed, 4 h): 52.6%
CETP activity relative to pre-dose (CETP [3]; fed, 6 h): 37.6%
CETP activity relative to pre-dose (CETP [3]; fed, 8 h): 39.1%
CETP activity relative to pre-dose (CETP [3]; fed, 24 h): 65.5%
CETP activity relative to pre-dose (CETP [3]; fed, post-study): 102.9%

Reference: patent US20140243414A1, “PHARMACEUTICAL COMPOSITIONS OF CETP INHIBITORS” (Japan Tobacco Inc., priority 2003, published 2014)
